# According to paper PMC11233931, “Remodeling tumor‐associated macrophage for anti‐cancer effects by rational design of irreversible inhibition of mitogen‐activated protein kinase‐activated protein kinase 2” (MedComm, 2024):
# Legend:
# Experiment in all cases: Eurofins kinase selectivity profile against 380 other human recombinant kinases (Table S2)
# Type in all cases: biochemical
# [1] = molecular target: T1, 380 human recombinant protein kinases (Homo sapiens, UniProt O00444); settings: Plk4(h), read-out: Inhibition rate
# T1 construct: purchased Eurofins (Celle Lévescault)
# T1 sequence (O00444 1-970): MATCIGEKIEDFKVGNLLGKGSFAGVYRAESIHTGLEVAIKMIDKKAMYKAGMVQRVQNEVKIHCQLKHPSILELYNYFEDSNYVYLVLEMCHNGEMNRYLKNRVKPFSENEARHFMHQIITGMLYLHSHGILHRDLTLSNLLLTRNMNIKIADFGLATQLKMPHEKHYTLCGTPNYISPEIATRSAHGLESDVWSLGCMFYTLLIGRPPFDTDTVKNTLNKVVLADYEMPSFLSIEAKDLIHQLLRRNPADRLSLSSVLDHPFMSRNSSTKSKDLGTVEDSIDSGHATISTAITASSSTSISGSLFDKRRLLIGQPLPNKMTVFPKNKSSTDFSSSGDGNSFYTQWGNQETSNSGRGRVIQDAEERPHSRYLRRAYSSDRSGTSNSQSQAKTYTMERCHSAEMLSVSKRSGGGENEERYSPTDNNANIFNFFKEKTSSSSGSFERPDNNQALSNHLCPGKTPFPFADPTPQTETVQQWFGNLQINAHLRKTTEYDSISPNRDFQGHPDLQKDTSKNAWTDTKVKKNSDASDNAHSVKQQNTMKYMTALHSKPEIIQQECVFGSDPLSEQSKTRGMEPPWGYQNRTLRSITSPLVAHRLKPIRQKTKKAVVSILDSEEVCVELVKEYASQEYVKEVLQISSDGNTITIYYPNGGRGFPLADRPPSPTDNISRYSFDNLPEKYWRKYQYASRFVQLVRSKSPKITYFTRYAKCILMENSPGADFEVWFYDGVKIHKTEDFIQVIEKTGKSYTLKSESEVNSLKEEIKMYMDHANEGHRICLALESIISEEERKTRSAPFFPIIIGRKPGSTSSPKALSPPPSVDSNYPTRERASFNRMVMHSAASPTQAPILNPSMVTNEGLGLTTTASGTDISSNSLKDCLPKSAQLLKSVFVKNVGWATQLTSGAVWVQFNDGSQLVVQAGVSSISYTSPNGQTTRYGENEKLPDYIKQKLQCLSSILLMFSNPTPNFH
# Summary of the method: (§1)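 Values come from a contract kinase-profiling service that tested the compound at multiple concentrations across 380 recombinant human kinases, as an off-target check against the MK2 activity.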
# [2] = molecular target: T2, 380 human recombinant protein kinases (Homo sapiens, UniProt Q9Y3S1); settings: WNK2(h), read-out: Inhibition rate (%)
# T2 construct: purchased Eurofins (Celle Lévescault)
# T2 sequence (Q9Y3S1 whole entry): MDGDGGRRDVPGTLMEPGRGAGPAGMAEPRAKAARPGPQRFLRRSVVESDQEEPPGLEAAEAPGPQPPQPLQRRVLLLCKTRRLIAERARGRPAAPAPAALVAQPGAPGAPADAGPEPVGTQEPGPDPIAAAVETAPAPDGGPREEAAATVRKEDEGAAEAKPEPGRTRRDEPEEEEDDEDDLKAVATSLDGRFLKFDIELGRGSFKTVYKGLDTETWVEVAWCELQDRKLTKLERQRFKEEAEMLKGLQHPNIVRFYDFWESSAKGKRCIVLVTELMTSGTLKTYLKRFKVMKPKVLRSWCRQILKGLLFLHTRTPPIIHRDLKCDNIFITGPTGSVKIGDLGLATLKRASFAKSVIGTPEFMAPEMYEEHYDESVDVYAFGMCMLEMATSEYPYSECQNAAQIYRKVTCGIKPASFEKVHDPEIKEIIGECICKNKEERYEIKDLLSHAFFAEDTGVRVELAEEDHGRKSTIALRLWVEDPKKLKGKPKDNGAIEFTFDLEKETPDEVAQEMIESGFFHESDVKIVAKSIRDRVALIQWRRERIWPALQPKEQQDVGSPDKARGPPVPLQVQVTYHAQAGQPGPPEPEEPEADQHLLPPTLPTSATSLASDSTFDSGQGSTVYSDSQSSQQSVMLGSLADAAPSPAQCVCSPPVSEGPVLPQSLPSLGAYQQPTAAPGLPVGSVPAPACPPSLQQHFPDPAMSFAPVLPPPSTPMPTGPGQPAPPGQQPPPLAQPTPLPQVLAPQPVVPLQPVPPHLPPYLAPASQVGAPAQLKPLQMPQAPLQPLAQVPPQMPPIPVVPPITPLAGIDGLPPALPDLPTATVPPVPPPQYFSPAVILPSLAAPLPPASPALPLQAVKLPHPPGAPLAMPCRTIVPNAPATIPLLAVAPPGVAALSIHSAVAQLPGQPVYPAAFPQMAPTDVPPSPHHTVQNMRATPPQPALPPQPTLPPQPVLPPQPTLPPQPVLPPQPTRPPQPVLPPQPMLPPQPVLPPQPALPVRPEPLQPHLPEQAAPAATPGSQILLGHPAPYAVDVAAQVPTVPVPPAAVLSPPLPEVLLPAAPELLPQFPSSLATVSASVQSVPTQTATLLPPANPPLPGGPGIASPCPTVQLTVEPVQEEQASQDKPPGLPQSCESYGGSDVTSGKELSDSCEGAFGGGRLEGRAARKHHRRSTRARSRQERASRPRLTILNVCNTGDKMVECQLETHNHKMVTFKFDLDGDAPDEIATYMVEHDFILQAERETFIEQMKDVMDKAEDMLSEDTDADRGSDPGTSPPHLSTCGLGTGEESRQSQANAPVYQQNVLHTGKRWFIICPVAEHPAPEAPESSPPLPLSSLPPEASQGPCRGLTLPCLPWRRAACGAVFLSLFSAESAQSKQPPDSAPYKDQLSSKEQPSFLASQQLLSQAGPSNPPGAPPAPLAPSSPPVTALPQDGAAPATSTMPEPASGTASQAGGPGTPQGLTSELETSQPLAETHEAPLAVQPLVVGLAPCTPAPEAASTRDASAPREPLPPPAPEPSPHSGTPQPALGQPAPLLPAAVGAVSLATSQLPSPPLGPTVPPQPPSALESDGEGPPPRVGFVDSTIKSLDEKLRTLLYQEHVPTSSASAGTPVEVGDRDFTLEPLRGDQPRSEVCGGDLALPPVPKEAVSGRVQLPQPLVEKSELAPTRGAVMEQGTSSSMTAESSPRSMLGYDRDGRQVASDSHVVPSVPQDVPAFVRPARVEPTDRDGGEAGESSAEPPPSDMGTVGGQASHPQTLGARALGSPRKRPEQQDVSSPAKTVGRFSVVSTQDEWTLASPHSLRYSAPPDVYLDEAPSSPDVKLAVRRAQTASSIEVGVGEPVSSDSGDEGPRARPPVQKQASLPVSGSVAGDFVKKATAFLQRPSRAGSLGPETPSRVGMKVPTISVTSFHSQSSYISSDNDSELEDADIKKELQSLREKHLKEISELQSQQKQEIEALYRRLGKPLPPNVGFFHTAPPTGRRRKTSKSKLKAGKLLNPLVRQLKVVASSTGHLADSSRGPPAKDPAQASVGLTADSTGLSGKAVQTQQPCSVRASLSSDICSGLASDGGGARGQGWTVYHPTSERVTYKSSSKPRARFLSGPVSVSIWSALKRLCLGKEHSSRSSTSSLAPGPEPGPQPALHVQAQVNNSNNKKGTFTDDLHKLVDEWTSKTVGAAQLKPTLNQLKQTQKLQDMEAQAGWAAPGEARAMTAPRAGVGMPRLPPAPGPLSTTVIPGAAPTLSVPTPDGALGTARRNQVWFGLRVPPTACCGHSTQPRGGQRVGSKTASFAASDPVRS
# Summary of the method: as §1
# [3] = molecular target: T3, 380 human recombinant protein kinases (Homo sapiens, UniProt O00443); settings: PI3KC2α(h), read-out: Inhibition rate (%)
# T3 construct: purchased Eurofins (Celle Lévescault)
# T3 sequence (O00443 whole entry): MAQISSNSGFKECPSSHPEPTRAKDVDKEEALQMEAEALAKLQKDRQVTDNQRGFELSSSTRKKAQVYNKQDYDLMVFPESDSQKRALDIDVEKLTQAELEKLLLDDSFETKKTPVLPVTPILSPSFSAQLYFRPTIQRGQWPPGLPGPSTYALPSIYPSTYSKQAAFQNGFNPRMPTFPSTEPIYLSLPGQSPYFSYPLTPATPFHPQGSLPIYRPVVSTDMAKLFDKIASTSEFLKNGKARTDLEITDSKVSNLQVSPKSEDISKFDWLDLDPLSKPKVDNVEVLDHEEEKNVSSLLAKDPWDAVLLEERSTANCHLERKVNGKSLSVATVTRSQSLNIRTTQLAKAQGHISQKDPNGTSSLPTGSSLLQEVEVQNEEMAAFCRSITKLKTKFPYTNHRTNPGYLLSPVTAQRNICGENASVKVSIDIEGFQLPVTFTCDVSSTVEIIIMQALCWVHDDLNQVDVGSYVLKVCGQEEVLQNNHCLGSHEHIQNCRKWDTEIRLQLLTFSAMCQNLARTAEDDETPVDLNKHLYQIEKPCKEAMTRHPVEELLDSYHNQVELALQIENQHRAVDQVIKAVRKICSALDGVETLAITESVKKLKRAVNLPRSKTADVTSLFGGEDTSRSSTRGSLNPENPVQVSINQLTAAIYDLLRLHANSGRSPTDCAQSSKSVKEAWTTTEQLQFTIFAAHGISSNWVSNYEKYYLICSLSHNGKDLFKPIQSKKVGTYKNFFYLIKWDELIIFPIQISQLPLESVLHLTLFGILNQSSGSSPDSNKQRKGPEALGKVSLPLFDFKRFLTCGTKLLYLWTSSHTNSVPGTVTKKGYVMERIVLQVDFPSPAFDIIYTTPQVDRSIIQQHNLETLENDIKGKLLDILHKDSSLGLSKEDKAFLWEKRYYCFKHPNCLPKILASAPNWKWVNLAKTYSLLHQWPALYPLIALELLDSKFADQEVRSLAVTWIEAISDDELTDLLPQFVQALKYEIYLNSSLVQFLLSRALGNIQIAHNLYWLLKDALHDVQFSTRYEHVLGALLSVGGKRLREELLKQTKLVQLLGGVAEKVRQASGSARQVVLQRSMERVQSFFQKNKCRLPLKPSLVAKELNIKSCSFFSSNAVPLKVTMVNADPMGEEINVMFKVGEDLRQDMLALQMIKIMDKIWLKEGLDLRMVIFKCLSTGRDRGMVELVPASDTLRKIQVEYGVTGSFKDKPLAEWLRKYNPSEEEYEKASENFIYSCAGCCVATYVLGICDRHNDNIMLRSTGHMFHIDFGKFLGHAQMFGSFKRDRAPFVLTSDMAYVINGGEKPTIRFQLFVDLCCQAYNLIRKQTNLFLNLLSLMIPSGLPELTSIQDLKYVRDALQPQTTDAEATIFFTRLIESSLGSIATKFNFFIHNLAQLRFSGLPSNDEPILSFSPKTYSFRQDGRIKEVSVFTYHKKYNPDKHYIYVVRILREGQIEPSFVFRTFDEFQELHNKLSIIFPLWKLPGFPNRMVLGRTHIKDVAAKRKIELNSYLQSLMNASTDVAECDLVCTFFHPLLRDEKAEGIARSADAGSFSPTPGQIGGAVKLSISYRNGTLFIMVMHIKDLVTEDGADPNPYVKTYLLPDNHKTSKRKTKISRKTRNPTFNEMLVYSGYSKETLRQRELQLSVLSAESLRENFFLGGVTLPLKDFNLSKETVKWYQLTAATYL
# Summary of the method: as §1
# [4] = molecular target: T4, 380 human recombinant protein kinases (Homo sapiens, UniProt O14757); settings: CHK1(h), read-out: Inhibition rate
# T4 construct: purchased Eurofins (Celle Lévescault)
# T4 sequence (O14757 1-476): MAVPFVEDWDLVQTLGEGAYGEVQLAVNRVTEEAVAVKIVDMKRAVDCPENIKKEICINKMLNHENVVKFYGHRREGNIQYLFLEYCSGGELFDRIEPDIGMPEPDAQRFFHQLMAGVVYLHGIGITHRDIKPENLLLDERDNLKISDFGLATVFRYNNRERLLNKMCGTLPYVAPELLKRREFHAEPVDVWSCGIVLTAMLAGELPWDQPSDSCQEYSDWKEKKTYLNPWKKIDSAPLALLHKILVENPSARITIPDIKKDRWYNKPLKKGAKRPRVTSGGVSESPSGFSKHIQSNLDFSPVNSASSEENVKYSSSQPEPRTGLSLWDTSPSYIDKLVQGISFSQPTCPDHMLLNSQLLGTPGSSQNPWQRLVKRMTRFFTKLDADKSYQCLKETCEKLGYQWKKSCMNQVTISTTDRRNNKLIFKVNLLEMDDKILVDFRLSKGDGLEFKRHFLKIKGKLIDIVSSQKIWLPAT
# Summary of the method: as §1
# [5] = molecular target: T5, 380 human recombinant protein kinases (Homo sapiens, UniProt Q92519); settings: TRB2(h), read-out: Inhibition rate (%)
# T5 construct: purchased Eurofins (Celle Lévescault)
# T5 sequence (Q92519 1-343): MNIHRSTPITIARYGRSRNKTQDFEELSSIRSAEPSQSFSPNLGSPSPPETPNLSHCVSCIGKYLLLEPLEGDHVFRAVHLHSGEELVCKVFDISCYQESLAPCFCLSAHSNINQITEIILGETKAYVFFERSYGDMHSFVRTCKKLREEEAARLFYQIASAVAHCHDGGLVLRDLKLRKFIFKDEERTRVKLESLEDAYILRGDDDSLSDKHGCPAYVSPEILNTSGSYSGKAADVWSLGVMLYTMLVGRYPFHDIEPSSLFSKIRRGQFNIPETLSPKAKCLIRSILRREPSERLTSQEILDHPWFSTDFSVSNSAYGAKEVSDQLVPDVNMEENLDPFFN
# Summary of the method: as §1
# [6] = molecular target: T6, 380 human recombinant protein kinases (Homo sapiens, UniProt Q86UE8); settings: TLK2(h), read-out: Inhibition rate (%)
# T6 construct: purchased Eurofins (Celle Lévescault)
# Summary of the method: as §1
# [7] = molecular target: T7, 380 human recombinant protein kinases (Homo sapiens, UniProt P49760); settings: CLK2(h), read-out: Inhibition rate
# T7 construct: purchased Eurofins (Celle Lévescault)
# T7 sequence (P49760 whole entry): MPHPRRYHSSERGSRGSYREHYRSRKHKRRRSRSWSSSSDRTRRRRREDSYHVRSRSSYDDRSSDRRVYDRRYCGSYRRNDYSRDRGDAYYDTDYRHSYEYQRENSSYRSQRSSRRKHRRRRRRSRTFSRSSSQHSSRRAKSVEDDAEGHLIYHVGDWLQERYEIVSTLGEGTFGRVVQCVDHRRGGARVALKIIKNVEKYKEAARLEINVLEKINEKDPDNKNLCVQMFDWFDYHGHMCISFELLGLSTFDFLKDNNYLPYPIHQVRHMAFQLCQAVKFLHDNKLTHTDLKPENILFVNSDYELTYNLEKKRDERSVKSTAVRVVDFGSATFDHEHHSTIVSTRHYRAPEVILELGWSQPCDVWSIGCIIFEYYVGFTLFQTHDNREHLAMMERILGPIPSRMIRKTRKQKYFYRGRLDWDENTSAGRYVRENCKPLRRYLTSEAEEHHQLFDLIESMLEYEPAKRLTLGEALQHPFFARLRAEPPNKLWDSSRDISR
# Summary of the method: as §1
# [8] = molecular target: T8, 380 human recombinant protein kinases (Homo sapiens, UniProt P51957); settings: NEK4(h), read-out: Inhibition rate
# T8 construct: purchased Eurofins (Celle Lévescault)
# Summary of the method: as §1
# [9] = molecular target: T9, 380 human recombinant protein kinases (Homo sapiens, UniProt P00519); settings: Abl(h), read-out: Inhibition rate
# T9 construct: purchased Eurofins (Celle Lévescault)
# Summary of the method: as §1
smiles,measurement,setting,value
C=CC(=O)Nc1cc(-c2cc(-c3cc4c([nH]3)CCNC4=O)ccn2)ccc1OC(F)(F)F [compound 11],inhibition at 0.01 µM,[1]; 10 nM,9%
same,inhibition at 0.1 µM,[1]; 100 nM,4%
same,inhibition at 1 µM,[1]; 1000 nM,33%
same,inhibition at 0.01 µM,[2]; 10 nM,11%
same,inhibition at 0.1 µM,[2]; 100 nM,19%
same,inhibition at 1 µM,[2]; 1000 nM,17%
same,inhibition at 0.01 µM,[3]; 10 nM,-4%
same,inhibition at 0.1 µM,[3]; 100 nM,-2%
same,inhibition at 1 µM,[3]; 1000 nM,-5%
same,inhibition at 0.01 µM,[4]; 10 nM,10%
same,inhibition at 0.1 µM,[4]; 100 nM,6%
same,inhibition at 1 µM,[4]; 1000 nM,6%
same,inhibition at 0.01 µM,[5]; 10 nM,29%
same,inhibition at 0.1 µM,[5]; 100 nM,58%
same,inhibition at 1 µM,[5]; 1000 nM,85%
same,inhibition at 0.01 µM,[6]; 10 nM,13%
same,inhibition at 0.1 µM,[6]; 100 nM,1%
same,inhibition at 1 µM,[6]; 1000 nM,-2%
same,inhibition at 0.01 µM,[7]; 10 nM,1%
same,inhibition at 0.1 µM,[7]; 100 nM,10%
same,inhibition at 1 µM,[7]; 1000 nM,42%
same,inhibition at 0.01 µM,[8]; 10 nM,-2%
same,inhibition at 0.1 µM,[8]; 100 nM,5%
same,inhibition at 1 µM,[8]; 1000 nM,34%
same,inhibition at 0.01 µM,[9]; 10 nM,-9%
same,inhibition at 0.1 µM,[9]; 100 nM,-5%
same,inhibition at 1 µM,[9]; 1000 nM,9%
